In brackets after ≈: the same amount, converted by molar mass.
Columns and labels:
E. coli = experiment: Antibiotic activity, MIC; format: cell-based; details: Escherichia coli
S. aureus = experiment: Antibiotic activity, MIC; format: cell-based; details: Staphylococcus aureus
P. aerug = experiment: Antibiotic activity, MIC
C. albicans = experiment: Antibiotic activity, MIC; details: Candida albicans
[1] = tested on: Stage 59-60 Xenopus tadpoles; experiment: Xenopus tadpole assay; format: in vivo, Xenopus laevis; details: 10 μg/ml in water
Text: A newly developed assay employing tadpoles, preferably Xenopus laevis Stages 59-60, were employed to study the effect of a compound by monitoring capillary occlusion in the tadpole's tail. […] The compounds of the invention affect the shape, viability and integrity of the embryonic tissues while not affecting the adult tissues, providing a powerful, highly specific screen. For example, substances that destroy all of the animal's epithelium, both adult and embryonic, could be regarded as toxic.
In this assay, tadpoles are introduced into Petri dishes containing a solution of the test compound in distilled water, preferably about 100 ml. The preferred concentration of the test compound is from about 1 μg/ml to about 10 μg/ml. The volume of liquid is sufficient for the animal to swim freely and drink from the solution. Thus, the effect observed results from oral absorption and subsequent systemic distribution of the agent. If the volume of liquid is not sufficient to permit oral intake, the effects that are observed would result from absorption through the surface epithelium. Thus, this simple assay can identify if an compound has characteristics of oral availability.
After an amount of time, typically about 60 minutes, the occlusion of blood flow through capillaries in the tadpole's tail are observed under an inverted microscope at a magnification of roughly 100×.
The tadpole assay described above provides an advantageous way to determine the pharmacological targets of each steroid when introduced into a mammal, and to determine pharmacological categories into which synthetic compounds belong. In the assay, each of the steroids was dissolved in 100 ml of distilled water at a concentration of 10 μg/ml. Stage 59-60 Xenopus tadpoles were introduced and evaluated by light microscopy and gross observation 1 hour later.

[2] = tested on: vitelline capillaries of 3- to 5-day chick embryo; experiment: Chick embryo vitelline capillary regression assay; format: in vivo; design: key to Vascular reactivity (capillary regression): + = Vascular reactivity; 0 = No vascular reactivity; +/− = Equivocal reactivity; details: 60 minutes
Procedure: Using the chick embryo vitelline capillaries assay, compounds were tested for their ability to induce capillary regression. Each compound was applied in 0.1 ml of 15% Ficol 400 and PBS onto the embryo, and vascular regression was assessed after 60 minutes.
The 3-day chick embryo consists of an embryonic disc from which numerous vessels emerge and return, forming a “figure 8”-shaped structure—the embryo in the center with vascular loops extending outward over both poles. […] Following a lag period of around 15 minutes, the constriction of continuity between capillary and secondary vessels, generally on the “venous” side, was observed. Continued pulsatile blood flow progressed, resulting in a “swelling” of the blind tube, followed by a pinching off of the remaining connection and formation of an enclosed vascular sac resembling a “blood island.” This process progressed until only the largest vessels remained intact.

[3] = tested on: human microvascular cells; experiment: Endothelial cord formation assay; format: cell-based; further: key: + = Inhibition of angiogenesis; − = No inhibition of angiogenesis; T = Toxic; *= cell rounding @ 10 µg/ml
Text: Endothelial cells have the capacity in vitro to form tubular aggregates resembling capillaries in various early stages of formation. This conversion occurs under relatively specific conditions, in which essential growth factors along with an effective substratum are provided. It has been shown that both the interaction of growth factors with the endothelial cell and its attachment to a substratum activate the NHE. The activation of this exchanger is believed to be required for subsequent morphologic transformation of the endothelial cell into a multicellular tubular structure.
To assess the effect of compounds on the cord-like structures formed by human microvascular cells when plated in the presence of VGEF (Vascular Endothelial Growth Factor) and basic fibroblast growth factor on a collagen matrix, a standard cord formation assay was used.

Compound | MIC (E. coli) [µg/mL] | MIC (S. aureus) [µg/mL] | MIC (P. aerug) [µg/mL] | MIC (C. albicans) [µg/mL] | also measured
C=C(C)C(=O)CCC(C)[C@H]1CCC2C3C(CC[C@@]21C)[C@@]1(C)CC[C@H](NCCCNCCCCN)C[C@@H]1C[C@H]3O (stereo partly shown) | 32 (≈ 58.8 µM) | 4 (≈ 7.35 µM) | 128 (≈ 235 µM) |  | 
CC(C)CCCC(C)[C@H]1CCC2C3CC[C@H]4C[C@H](NCCCCN)CC[C@]4(C)C3CC[C@@]21C (stereo partly shown) | > 256 | 4 (≈ 8.72 µM) | > 256 | 64 (≈ 139 µM) | 
CC(C)C(O)CCC(C)[C@H]1CCC2C3C(CC[C@@]21C)[C@@]1(C)CC[C@H](NCCCNCCCCN(C)C)C[C@@H]1C[C@H]3O (stereo partly shown) | 64 (≈ 111 µM) | 8 to 16 (≈ 13.9 to 27.8 µM) | 128 (≈ 222 µM) | 64 (≈ 111 µM) | 
CC(C)CCCC(C)[C@H]1CCC2C3CC[C@H]4C[C@@H](NCCCNCCCCNCCCN)CC[C@]4(C)C3CC[C@@]21C (stereo partly shown) [drawing 47] | 128 (≈ 223 µM) | 16 (≈ 27.9 µM) | 64 (≈ 112 µM) | 32 (≈ 55.8 µM) | 
C[C@@H](O)C1CCC2C3CC[C@H]4C[C@H](NCCCNCCCCN)CC[C@]4(C)C3CC[C@@]21C (stereo partly shown) | 64 (≈ 143 µM) | 16 (≈ 35.7 µM) | 128 (≈ 286 µM) | 128 (≈ 286 µM) | 
CC(C)C(CCC(C)[C@H]1CCC2C3C(CC[C@@]21C)[C@@]1(C)CC[C@@H](NCCCNCCCCN)C[C@@H]1C[C@H]3O)OS(=O)(=O)O (stereo partly shown) | 4 to 8 (≈ 6.37 to 12.7 µM) | 2 to 4 (≈ 3.18 to 6.37 µM) | 16 (≈ 25.5 µM) | 16 (≈ 25.5 µM) | 
CC(CCC(=O)O)[C@H]1CCC2C3C(CC[C@@]21C)[C@@]1(C)CC[C@@H](NCCN)C[C@H]1C[C@H]3O (stereo partly shown) [Compound 414] |  |  |  |  | Pharmacological category in tadpole assay (similarity to a reference steroid) [1]: pharmacologic activity similar to Fraction 1; Vascular reactivity (capillary regression) ([2]; 1 μg applied): 0
CC(C)CCCC(C)[C@H]1CCC2C3CC[C@H]4C[C@@H](NCCCCN)CC[C@]4(C)C3CC[C@@]21C (stereo partly shown) | > 256 | 16 (≈ 34.9 µM) | > 256 | > 256 | 
CC(CCC(=O)O)[C@H]1CCC2C3C(CC[C@@]21C)[C@@]1(C)CC[C@@H](NCCCNCCCCN)C[C@@H]1C[C@H]3O (stereo partly shown) | 64 (≈ 123 µM) | 16 (≈ 30.8 µM) | 32 (≈ 61.6 µM) | 32 (≈ 61.6 µM) | 
CC(C)C(O)CCC(C)[C@H]1CCC2C3C(CC[C@@]21C)[C@@]1(C)CC[C@H](NCCCNCCCCN)C[C@@H]1C[C@H]3O (stereo partly shown) | 32 (≈ 58.4 µM) | 4 to 16 (≈ 7.3 to 29.2 µM) | 128 (≈ 234 µM) | 64 (≈ 117 µM) | 
CC(C)CCCC(C)[C@H]1CCC2C3CC[C@H]4C[C@H](NCCCN5CCCCN=C5N)CC[C@]4(C)C3CC[C@@]21C (stereo partly shown) | > 256 | 2 (≈ 3.7 µM) | > 256 | 32 (≈ 59.2 µM) | 
C[C@@H](O)C1CCC2C3CC[C@H]4C[C@@H](NCCCNCCCCN)CC[C@]4(C)C3CC[C@@]21C (stereo partly shown) | 32 to 64 (≈ 71.5 to 143 µM) | 4 (≈ 8.93 µM) | 256 (≈ 572 µM) | 64 (≈ 143 µM) | 
CC(C)CCCC(C)[C@H]1CCC2C3C(CC[C@@]21C)[C@@]1(C)CC[C@H](NCCCNCCCCN)C[C@@H]1C[C@H]3O (stereo partly shown) [Compound 371] |  |  |  |  | Pharmacological category in tadpole assay (similarity to a reference steroid) [1]: effects like those produced by compound 1436; Vascular reactivity (capillary regression) ([2]; 0.001 μg applied): 0; Vascular reactivity (capillary regression) ([2]; 0.01 μg applied): 0; Vascular reactivity (capillary regression) ([2]; 0.1 μg applied): 0; Vascular reactivity (capillary regression) ([2]; 1 μg applied): +/−; Vascular reactivity (capillary regression) ([2]; 10 μg applied): +
COC(=O)CCC(C)[C@H]1CCC2C3C[C@@H](O)[C@H]4C[C@@H](NCCN)CC[C@]4(C)C3CC[C@@]21C (stereo partly shown) [Compound 432] |  |  |  |  | Effect on endothelial cord formation ([3]; 1.0 μg/ml): −; Effect on endothelial cord formation ([3]; 10.0 μg/ml): −; Pharmacological category in tadpole assay (similarity to a reference steroid) [1]: functionally similar to compound 1437
COC(=O)CCC(C)[C@H]1CCC2C3CC[C@H]4C[C@@H](NCCCNCCCCNCCCN)CC[C@]4(C)C3CC[C@@]21C (stereo partly shown) [Compound 459] |  |  |  |  | Pharmacological category in tadpole assay (similarity to a reference steroid) [1]: pharmacologic activity similar to that seen for FX 3
